Where a name gives a salt, the structure may show the parent alone.
How the values were obtained:
thoracic aorta = experiment: Vasorelaxant effect on isolated vessels (rat thoracic aorta rings without endothelium, precontracted with noradrenalin); parameters: species or system Wistar rats; conditions: for Emax: Rattus norvegicus, maximum inhibition of noradrenalin effect, 10^-8 to 10^-4 M substance, read-out: Maximum Relaxation; for IC50: rat aorta, 10^-7 M noradrenalin contraction
Protocol: Vasorelaxant effect of the compounds according to the invention on isolated vessels.
Adult Wistar rats weighing between 250 and 350 g are anaesthetised by intraperitoneal injection of sodium pentobarbital (30 mg/kg). The thoracic aorta is rapidly removed and placed in a refrigerated and oxygenated solution of bicarbonate buffer of the Krebs-Ringer type (composition [mM]: NaCl, 118; KCl, 4.7; CaCl2, 2.5; MgSO4, 1.2; KH2 PO4, 1.2; NaHCO3, 25.0; disodium calcium salt of EDTA, 0.026; glucose 11.1). The aorta is dissected with the aim of removing the connective tissue and then cut into 6 rings (length 5-10 mm). The endothelium is removed by moderate abrasion of the intimal surface of the aortic segments with the aid of a pair of tweezers. These segments are then placed between two hooks in an isolated organ cell filled with 25 ml of bicarbonate buffer (pH 7.4), thermostat-controlled at 37° C. and oxygenated with the aid of a 95% O2 /5% CO2 mixture (pH 7.4). One of the hooks is fixed to a fixed point, while the second is connected to a transducer with the aim of measuring the variations in isometric voltage (expressed in grams). After an equilibration period of 30 min., the segments are progressively withdrawn so as to attain the level of base voltage for which the contractor response to noradrenalin (10^-7 M) is maximum (optimum voltage; average 2 g). The absence of endothelium is verified by addition of a single concentration of acetylcholine (10^-6 M), after precontraction of the vessels by noradrenalin (10^-7 M). The integrity of the vascular smooth muscle is also verified by adding a single concentration of a vasodilator whose response is independent of the presence of the endothelium, SIN-1 (10^-5 M). After this initial procedure, the aortas are washed, equilibrated for a period of 30 min and then recontracted (10^-7 M noradrenalin). The relaxant effect of the substance to be tested is then evaluated by adding increasing concentrations of this substance (from 10^-8 to 10^-4 M). The maximum inhibition of the concentration caused by noradrenalin (expressed as a percentage) is then calculated ("maximum relaxation"). When this maximum relaxation is greater than 50%, the concentration of substance tested producing a 50% inhibition of the maximum contraction (IC50) is calculated. Table V below collates the IC50 and the maximum relaxation percentages for the various compounds tested.

anesthetised dogs = experiment: Haemodynamic effects on anesthetised dogs; format: in vivo, dogs (labrador/harrier cross); conditions: dogs
Protocol: Haemodynamic effects of the compounds according to the invention on anesthetised pigs or dogs
The dogs, weighing between 16 and 26 kg, are the progeny of a labrador/harrier cross.
In the case of dogs the anesthesia is induced by sodium pentobarbitol (45 mg/jg i.v.) and maintained with an i.v. perfusion (flow rate of 8 mg/kg/h).
The pigs or dogs are placed under artificial respiration in ambient air. Analysis of the blood gases (pO2, pCO2) is carried out at regular intervals and oxygen can be supplied via the respirator, if necessary.
The haemodynamic parameters recorded include the left ventricular pressure (LVP; Millar PC350 Tip catheter inserted via the carotid artery), systemic blood pressure (BPs, BPd; full catheter in a femoral artery), the end pressure of the left ventricular diastole (LVEDP), the ventricular contractility (LVPdp/dtmax) and the heart rate (HR).
Following an equilibration period of the order of 45 minutes, the compounds studied are administered intraduodenally (i.d.) or intraveinously (i.v.) to several animals (1 to 4). The haemodynamic variables are recorded continuously for 1 to 3 hours, as a function of the period of action of the compound.
The effects of the compounds studied are shown as the absolute difference with respect to the base value (bv) measured before administration of the compounds and are shown in Table VII (a,b,c).
An antianginal activity is estimated by a fall in the BPs and the LVEDP (fall in venous return).

Row | SMILES | Emax (thoracic aorta) | IC50 (thoracic aorta) | BPs (min), period of action (anesthetised dogs; 3 mg/kg i.v.) | BPs, difference to base value (anesthetised dogs; 3 mg/kg i.v.) | LVEDP (min), period of action (anesthetised dogs; 3 mg/kg i.v.) | LVEDP, difference to base value (anesthetised dogs; 3 mg/kg i.v.) | further results
1 | CC(C)(C)OC(=O)N1CSC[C@H]1C(=O)O[C@@H]1CO[C@H]2[C@@H]1OC[C@@H]2O[N+](=O)[O-] [Compound 24, 5-O-[(3-t-Butoxycarbonyl-4-L-thiazolidinyl)carbonyl]-2-O-nitro-1,4:3,6-dianhydro-D-glucitol] | 100% | 20 µM | > 30 min | -10 mmHg | 10 min | 1,0 mmHg | –
2 | O=C(O[C@@H]1CO[C@H]2[C@@H]1OC[C@@H]2O[N+](=O)[O-])[C@@H]1CSCN1 [Compound 25, 5-O-[(4-L-Thiazolidinyl)carbonyl]-2-O-nitro-1,4:3,6-dianhydro-D-glucitol monohydrochloride] | 35% | > 100 µM | – | – | – | – | BPs (min), period of action (anesthetised dogs; 10 mg/kg i.d.): > 60 min; BPs, difference to base value (anesthetised dogs; 10 mg/kg i.d.): -30 mmHg; LVEDP (min), period of action (anesthetised dogs; 10 mg/kg i.d.): > 60 min; LVEDP, difference to base value (anesthetised dogs; 10 mg/kg i.d.): -3,0 mmHg
3 | CC(=O)NCSC[C@H](NC(=O)OC(C)(C)C)C(=O)O[C@@H]1CO[C@H]2[C@@H]1OC[C@@H]2O[N+](=O)[O-] [Compound 26, S-[(Acetylamino)methyl]-N-[(t-butoxy)carbonyl]-L-cysteine ester of 2-O-nitro-1,4:3,6-dianhydro-D-glucitol] | 70% | 80 µM | – | – | – | – | BPs (min), period of action (anesthetised dogs; 10 mg/kg i.v.): > 90 min; BPs, difference to base value (anesthetised dogs; 10 mg/kg i.v.): -10 mmHg; LVEDP (min), period of action (anesthetised dogs; 10 mg/kg i.v.): > 90 min; LVEDP, difference to base value (anesthetised dogs; 10 mg/kg i.v.): 2,0 mmHg
4 | CC(=O)NCSC[C@H](N)C(=O)O[C@@H]1CO[C@H]2[C@@H]1OC[C@@H]2O[N+](=O)[O-] [Compound 27, S-[(Acetylamino)methyl]-L-cysteine ester of 2-O-nitro-1,4:3,6-dianhydro-D-glucitol monohydrochloride] | 14% | > 100 µM | > 90 min | -15 mmHg | > 90 min | -1,0 mmHg | –
5 | CC(C)(C)OC(=O)N[C@@H](CSSc1ccccc1[N+](=O)[O-])C(=O)N[C@H]1CO[C@H]2[C@@H]1OC[C@@H]2O[N+](=O)[O-] [Compound 35, S-[(2-Nitrophenyl)thio]-N-[(t-butoxy)carbonyl]-L-cysteine amide of 5-amino-5-deoxy-2-O-nitro-1,4:3,6-dianhydro-L-iditol] | 46% | 100 µM | > 30 min | -10 mmHg | 0 min | 0,0 mmHg | –
6 | CSCC[C@H](NC(=O)OC(C)(C)C)C(=O)N[C@H]1CO[C@H]2[C@@H]1OC[C@@H]2O[N+](=O)[O-] [Compound 37, N-[(t-Butoxy)carbonyl]-L-methionine amide of 5-amino-5-deoxy-2-O-nitro-1,4:3,6-dianhydro-L-iditol] | 100% | 13 µM | – | – | – | – | BPs (min), period of action (anesthetised dogs; 10 mg/kg i.v.): > 90 min; BPs, difference to base value (anesthetised dogs; 10 mg/kg i.v.): -25 mmHg; LVEDP (min), period of action (anesthetised dogs; 10 mg/kg i.v.): 30 min; LVEDP, difference to base value (anesthetised dogs; 10 mg/kg i.v.): -2,0 mmHg
7 | O=C(N[C@H]1CO[C@H]2[C@@H]1OC[C@H]2O[N+](=O)[O-])[C@@H]1CSCN1 [Compound 40, 2-[[(4-L-Thiazolidinyl)carbonyl]amino]-2-deoxy-5-O-nitro-1,4:3,6-dianhydro-D-glucitol monohydrochloride] | 38% | > 100 µM | > 90 min | -10 mmHg | > 90 min | -1,0 mmHg | –
8 | CC(=O)NCSC[C@H](NC(=O)OC(C)(C)C)C(=O)N[C@H]1CO[C@H]2[C@@H]1OC[C@H]2O[N+](=O)[O-] [Compound 41, S-[(Acetylamino)methyl]-N-[(t-butoxy)carbonyl]-L-cysteine amide of 2-amino-2-deoxy-5-O-nitro-1,4:3,6-dianhydro-D-glucitol] | 70% | 63 µM | – | – | – | – | BPs (min), period of action (anesthetised dogs; 3 mg/kg i.d.): > 180 min; BPs, difference to base value (anesthetised dogs; 3 mg/kg i.d.): -25 mmHg; LVEDP (min), period of action (anesthetised dogs; 3 mg/kg i.d.): 0 min; LVEDP, difference to base value (anesthetised dogs; 3 mg/kg i.d.): 0,0 mmHg

From patent US5591758A, “Organic nitrates, processes for their preparation and their use in the treatment of cardiovascular diseases” (Laboratoires Hoechst, SA, priority 1991, dated 1997)
